# Source: patent publication US9980943B2, “Methods of treating muscular dystrophy” (BOARD OF REGENTS OF THE NEVADA SYSTEM OF HIGHER EDUCATION, …, priority 2013, dated 2018)
# Key:
# Format in all cases: cell-based, mouse
# [1] = system: α7 integrin (LacZ reporter in α7βgal+/− myoblasts); assay: Myoblast α7+/LacZ integrin FDG assay (Burkin assay in myoblasts, 96-well); conditions: α7+/LacZ myoblasts, 96-well
# [2] = system: α7 integrin (LacZ reporter in α7+/LacZ myotubes); assay: Myotube α7 integrin FDG assay (Burkin assay in myotubes, 96-well); conditions: myotubes
# [3] = system: β-galactosidase in CMV-LacZ C2C12 myoblasts; assay: CMV-LacZ secondary screen in C2C12 myoblasts (β-Gal stabilizing assay); conditions: CMV-LacZ C2C12 myoblasts
# Summary of the method: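 CMV-LacZ C2C12 line (clonal, FDG-screened); myoblasts/myotubes dosed 0.5–40 μM (0.5, 1, 5, 10, 20, 40 μM); n=2 per point; β-gal stabilization read-out.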
# [4] = system: β-galactosidase in CMV-LacZ C2C12 myotubes; assay: CMV-LacZ secondary screen in C2C12 myotubes (β-Gal stabilizing assay); conditions: C2C12 CMV-LacZ myotubes, fold relative to DMSO
# Summary of the method: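 Stable CMV-LacZ C2C12 clone; six-point curve 0.5–40 μM; duplicates.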
SMILES,"Burkin Assay in Myoblasts, signal relative to DMSO ([1]; 0.5 uM)","Burkin Assay in Myoblasts, signal relative to DMSO ([1]; 1 uM)","Burkin Assay in Myoblasts, signal relative to DMSO ([1]; 5 uM)","Burkin Assay in Myoblasts, signal relative to DMSO ([1]; 10 uM)","Burkin Assay in Myoblasts, signal relative to DMSO ([1]; 20 uM)","Burkin Assay in Myoblasts, signal relative to DMSO ([1]; 40 uM)","Burkin Assay in Myotubes, α7 integrin LacZ reporter signal relative to DMSO ([2]; 0.5 uM)","Burkin Assay in Myotubes, α7 integrin LacZ reporter signal relative to DMSO ([2]; 1 uM)","Burkin Assay in Myotubes, α7 integrin LacZ reporter signal relative to DMSO ([2]; 5 uM)","Burkin Assay in Myotubes, α7 integrin LacZ reporter signal relative to DMSO ([2]; 10 uM)","Burkin Assay in Myotubes, α7 integrin LacZ reporter signal relative to DMSO ([2]; 20 uM)","Burkin Assay in Myotubes, α7 integrin LacZ reporter signal relative to DMSO ([2]; 40 uM)",CMV-LACZ in Myoblasts (β-galactosidase activity relative to DMSO) ([3]; 0.5 uM),CMV-LACZ in Myoblasts (β-galactosidase activity relative to DMSO) ([3]; 1 uM),CMV-LACZ in Myoblasts (β-galactosidase activity relative to DMSO) ([3]; 5 uM),CMV-LACZ in Myoblasts (β-galactosidase activity relative to DMSO) ([3]; 10 uM),CMV-LACZ in Myoblasts (β-galactosidase activity relative to DMSO) ([3]; 20 uM),CMV-LACZ in Myoblasts (β-galactosidase activity relative to DMSO) ([3]; 40 uM),"CMV-LACZ in Myotubes, signal relative to DMSO ([4]; 0.5 uM)","CMV-LACZ in Myotubes, signal relative to DMSO ([4]; 1 uM)",other results
CCOC(=O)C1(Cc2cccc(Cl)c2)CCCN(C(=O)CCSC)C1 (stereo not drawn) [MLS001000299-01],1.089,0.9953,0.9552,0.975,0.9397,0.7738,0.9225,1.006,0.8764,0.9163,0.793,0.5578,1.4188,1.2745,0.9901,0.8248,1.1522,1.0107,0.6411,1.3158,"CMV-LACZ in Myotubes, signal relative to DMSO ([4]; 5 uM): 1.0658; CMV-LACZ in Myotubes, signal relative to DMSO ([4]; 10 uM): 0.9029; CMV-LACZ in Myotubes, signal relative to DMSO ([4]; 20 uM): 0.9544; CMV-LACZ in Myotubes, signal relative to DMSO ([4]; 40 uM): 1.0744"
O=CN1CCN(C(=O)CC(c2ccccc2)c2cc(Br)ccc2O)CC1 (stereo not drawn) [MLS001000874-01],1.175,1.033,1.077,0.8677,1.007,0.9545,0.9357,0.8646,1.0731,0.9216,0.9266,0.8181,1.1029,1.0442,0.8886,1.0295,1.0556,1.1100,1.0943,1.1590,"CMV-LACZ in Myotubes, signal relative to DMSO ([4]; 5 uM): 1.1124; CMV-LACZ in Myotubes, signal relative to DMSO ([4]; 10 uM): 0.9960; CMV-LACZ in Myotubes, signal relative to DMSO ([4]; 20 uM): 1.1484; CMV-LACZ in Myotubes, signal relative to DMSO ([4]; 40 uM): 1.0947"
O=C(CCc1ccccc1)c1nnc(-c2ccccc2)o1 [MLS001004364-01],1.0917,1.105,1.035,0.9531,0.9729,0.9374,1.093,1.105,0.9047,0.8617,0.8875,1.055,0.9117,1.0643,1.0438,0.9011,1.0263,1.0441,0.9210,1.0095,"CMV-LACZ in Myotubes, signal relative to DMSO ([4]; 5 uM): 0.8978; CMV-LACZ in Myotubes, signal relative to DMSO ([4]; 10 uM): 0.9480; CMV-LACZ in Myotubes, signal relative to DMSO ([4]; 20 uM): 1.2824; CMV-LACZ in Myotubes, signal relative to DMSO ([4]; 40 uM): 1.1824"
Br.COc1ccc(C(=O)CN2CCCCC2)cc1 [MLS001004864-01],1.1396,1.193,1.109,1.023,1.105,0.8883,0.949,1.025,0.9784,0.9618,0.6075,0.376,1.2650,0.9288,1.2276,1.0417,1.2930,0.9933,0.9657,0.9610,"CMV-LACZ in Myotubes, signal relative to DMSO ([4]; 5 uM): 1.0697; CMV-LACZ in Myotubes, signal relative to DMSO ([4]; 10 uM): 0.9501; CMV-LACZ in Myotubes, signal relative to DMSO ([4]; 20 uM): 0.9653; CMV-LACZ in Myotubes, signal relative to DMSO ([4]; 40 uM): 0.8884"
COC(=O)c1ccc(N=Nc2ccccc2)cc1 [MLS001005712-01],1.1047,1.17,0.926,0.8783,0.8763,0.764,0.8704,1.173,0.9472,0.939,0.7885,0.7405,1.0188,1.2385,0.8934,0.9125,1.0241,1.0230,1.0684,1.0379,"CMV-LACZ in Myotubes, signal relative to DMSO ([4]; 5 uM): 0.9623; CMV-LACZ in Myotubes, signal relative to DMSO ([4]; 10 uM): 0.8075; CMV-LACZ in Myotubes, signal relative to DMSO ([4]; 20 uM): 1.1133; CMV-LACZ in Myotubes, signal relative to DMSO ([4]; 40 uM): 1.3167"
CC(C)(C)NC(=O)NC(=O)CN1CCN(Cc2ccccc2)CC1 [MLS001006302-01],1.123,0.9303,0.9535,1.172,0.973,0.9414,0.9822,0.9373,1.039,1.212,0.7835,1.078,0.9343,0.7663,0.8911,1.0767,0.9502,0.7646,1.0229,0.9143,"CMV-LACZ in Myotubes, signal relative to DMSO ([4]; 5 uM): 0.9398; CMV-LACZ in Myotubes, signal relative to DMSO ([4]; 10 uM): 1.0122; CMV-LACZ in Myotubes, signal relative to DMSO ([4]; 20 uM): 0.9010; CMV-LACZ in Myotubes, signal relative to DMSO ([4]; 40 uM): 0.9720"
